Measurements as given in paper PMC10938783, “A novel pan-PI3K inhibitor KTC1101 synergizes with anti-PD-1 therapy by targeting tumor suppression and immune activation” (Molecular Cancer, 2024).

Experiments:
[1] = tested on: kinase panel comprising 50 kinases; assay: Kinase profiling, panel of 50 kinases; type: biochemical; settings: 1 μM
Procedure: Procedures for the preparation of KTC1101 are described in supplemental data. To investigate the PI3K inhibitory efficacy of KTC1101, its impact on the kinase activity of PI3K isoforms was assessed using the Adapta kinase assay as previously reported. Initially, a dilution series of 2.5 µL KTC1101 or DMSO (control) was prepared and added to the respective wells of a 384-well plate. Subsequently, optimized 2.5 µL kinase solutions, including PIK3CA/PIK3R1, PIK3CB/PIK3R1, PIK3CG, and PIK3CD/PIK3R1, were introduced to each well. After adding the kinase solutions, 5 µL ATP and PIP2:PS lipid kinase substrate was introduced into each well and incubated for 1 h at room temperature. This step allows for the initiation and progression of the kinase reaction. Following the incubation, a detection solution (5 µL) was added to all the wells. This solution contained 30 mM EDTA to stop the kinase reaction, 6 nM Eu-labeled anti-ADP antibody, and a 3 × concentration of Alexa Fluor® 647 ADP tracer. The EDTA effectively terminates the kinase reaction, while the anti-ADP antibody and ADP tracer are crucial for the detection of ADP produced during the kinase reaction, which correlates with PI3K activity. […] Finally, the fluorescence of each well was measured using a Multi-Mode Microplate Reader (Spark, Tecan). […]

tumor cell lines = assay: Apoptosis analysis; type: cell-based, human; settings: tested cell lines, 48 h
PC3 tumors = assay: PC3 xenograft in BALB/c nude mice; type: in vivo, mouse
Procedure: (§1) BALB/c nude, NSG, and C57BL/6J mice were obtained from Tianjin Medical University. The housing temperature was controlled, ranging from 20.5–24 °C, and humidity was monitored but not controlled ranging from 30–70%. The 12-h daily light cycle was from 06:00 to 18:00. To generate a murine subcutaneous tumor model, PC3 and HSC2 cells were subcutaneously injected into the right lateral flank of 4- to 5-week-old male BALB/c nude mice. TMD8, CAL33, and S24 cells were subcutaneously injected into the right lateral flank of 4- to 5-week-old male NSG mice. When tumors reached a volume of 300–500 mm^3, they were excised, diced into 2 mm × 2 mm × 2 mm pieces, and implanted into the right flanks of BALB/c nude or NSG mice. Tumors were allowed to grow to a volume of 100 mm^3, and then the animals were randomly divided into several groups. Each group of five mice was treated with either vehicle or KTC1101 (25, 50, or 100 mg/kg, PO). Tumor size was measured every 3 d or 4 d until the endpoint. The tumor volume was calculated using the following formula: length × width × height/2. At the end of the experimental period, mice were euthanized by overdosing on pentobarbital sodium, and the tumors were removed. Tumor tissue was formalin-fixed and paraffin-embedded for histological analysis.

TMD8 tumors = assay: TMD8 xenograft in NSG mice; type: in vivo, mouse
Procedure: as §1

HSC2 tumors = assay: HSC2 xenograft in BALB/c nude mice; type: in vivo, mouse; settings: 100 mg/kg PO
Procedure: as §1

Tregs = assay: T cell suppression assay (CFSE); type: cell-based, mouse
Procedure: Spleens from naive mice were isolated and ground through 70-μm filters to generate a single-cell suspension. After RBC lysis, single-cell suspensions were stained with CD3, CD8, CD4, CD25 or CD127 antibodies. Viable CD8^+ T cells (CD3^+CD8^+), CD4^+ T cells (CD3^+CD4^+), and Tregs (CD3^+CD4^+CD25^+CD127^low/−) from single-cell suspensions were sorted by FACS. Then T cells were labelled with […] in pre-warmed PBS for 10 min at 37 °C. The CFSE-labelled T cells were seeded in 96-well plates pre-coated with 10 μg/mL CD3 and 1 μg/mL CD28 antibodies and cultured in 1640 media with 10% FBS, 1 mM Sodium Pyruvate (Thermo, 11,360,070), 50 μM β-ME and 100 IU/mL IL2, as well as different concentrations of KTC1101 or solvent control. After 72 h, cells were harvested and the CFSE signal was measured by flow cytometry. Cell growth rate was calculated by the percentage of live, proliferated cell number at each drug concentration vs. solvent control.

[2] = Drug concentration measurement in tumors; type: in vivo, mouse; settings: B16 tumors, continuous dosing
Procedure: To evaluate the intratumoral concentration of KTC1101, the B16 murine cancer model was established by subcutaneously implanting 2.5 × 10^5 B16 cells into the right lateral flank of C57BL/6 mice. The mouse model was utilized for experiments when tumor volumes reached approximately 100 mm^3. The B16 tumor-bearing C57BL/6 mice were divided into groups, with each group comprising three mice. They were treated with KTC1101 at doses of either 50 or 100 mg/kg (PO). The mice were sacrificed, and tumors were collected on days 1, 5, and 7 post-treatment. Approximately 50 mg of each tumor was homogenized in 1 mL of methanol, followed by centrifugation at 12,000 rpm at 4 °C for 10 min. The concentration of KTC1101 in the supernatant was quantified using LC–MS.

p-Akt, p-S6, Ki67 = assay: H&E and immunohistochemical staining of xenograft tumors; type: in vivo, mouse; settings: IHC, PC3 and TMD8 xenografts
Procedure: H&E and IHC staining were performed as previously described. H&E staining was used to detect pathological changes in morphology. For histological analysis, formalin-fixed, paraffin-embedded tumors were sectioned, and slides were deparaffinized using xylene (Thermo Fisher). Endogenous peroxidases were quenched with 3% hydrogen peroxide in methanol. Staining was performed using antibodies against phosphorylated Akt (Ser473), phosphorylated S6 (Ser235/236), or Ki67. Counterstaining was performed with Mayer’s hematoxylin (Dako). Slides were observed under an Olympus CX21 microscope and scanned with a high-resolution digital slide scanner (Pannoramic 250, 3DHistech) to capture images.

COc1cc(N)cc2c1nc(C(F)F)n2-c1nc(N2CCCOCC2)nc(N2CCOCC2)n1 [KTC1101, 2-(difluoromethyl)-4-methoxy-1-(4-morpholino-6-(1,4-oxazepan-4-yl)-1,3,5-triazin-2-yl)-1H-benzo[d]imidazol-6-amine]
inhibition rate, all four PI3K targets [1]: greater than 90%
inhibition rate, other kinases of the panel [1]: less than 50%
induction of apoptosis (tumor cell lines): did not observe a potent induction of apoptosis except HSC2 cell line
tumor growth (PC3 tumors; 25 mg/kg PO): significant delay in tumor growth
efficacy in inhibiting PC3 tumors (PC3 tumors; 50 mg/kg PO): equivalent to 200 mg/kg ZSTK474
tumor growth (PC3 tumors; 100 mg/kg PO): Tumor growth arrest
tumor growth (TMD8 tumors; 100 mg/kg PO): slowed tumor progression
efficacy versus ZSTK474 and Copanlisib (TMD8 tumors; 100 mg/kg and 125 mg/kg PO): marginally outperformed those of 200 mg/kg ZSTK474 orally and was comparable to 14 mg/kg Copanlisib intravenously
tumor growth (HSC2 tumors): Tumor growth arrest
selective inhibition of Treg proliferation over CD8^+ T cells (Tregs): over a tenfold greater extent than CD8^+ T cells
IC50 (Tregs; Mus musculus, T-cell, 72 h, read-out: IC50 proliferation): 2.58 nM
intratumoral drug concentration [2]: accumulation of the drug in continuous dosing
Ki67 expression in tumor tissues (p-Akt, p-S6, Ki67): notable reduction in Ki67 expression
phosphorylation of AKT in tumor tissues (p-Akt, p-S6, Ki67): decreased phosphorylation of AKT
